In ChEMBL document CHEMBL1139255, “Structure-activity relationship studies of 5-benzylaminoimidazo[1,2-c]pyrimidine-8-carboxamide derivatives as potent, highly selective ZAP-70 kinase inhibitors” (Bioorg Med Chem, 2009):

Columns and labels:
[1] = target: Mitogen-activated protein kinase 14 (Homo sapiens, UniProt Q16539); assay: Inhibition of p38 alpha
[2] = target: T1, Tyrosine-protein kinase ZAP-70 (Homo sapiens, UniProt P43403); assay: Inhibition of human ZAP70 (Leu325 to Ala619) expressed in Sf9 cells by coupled spectrophotometric enzyme assay; format: cell-based
T1 sequence (P43403 whole entry): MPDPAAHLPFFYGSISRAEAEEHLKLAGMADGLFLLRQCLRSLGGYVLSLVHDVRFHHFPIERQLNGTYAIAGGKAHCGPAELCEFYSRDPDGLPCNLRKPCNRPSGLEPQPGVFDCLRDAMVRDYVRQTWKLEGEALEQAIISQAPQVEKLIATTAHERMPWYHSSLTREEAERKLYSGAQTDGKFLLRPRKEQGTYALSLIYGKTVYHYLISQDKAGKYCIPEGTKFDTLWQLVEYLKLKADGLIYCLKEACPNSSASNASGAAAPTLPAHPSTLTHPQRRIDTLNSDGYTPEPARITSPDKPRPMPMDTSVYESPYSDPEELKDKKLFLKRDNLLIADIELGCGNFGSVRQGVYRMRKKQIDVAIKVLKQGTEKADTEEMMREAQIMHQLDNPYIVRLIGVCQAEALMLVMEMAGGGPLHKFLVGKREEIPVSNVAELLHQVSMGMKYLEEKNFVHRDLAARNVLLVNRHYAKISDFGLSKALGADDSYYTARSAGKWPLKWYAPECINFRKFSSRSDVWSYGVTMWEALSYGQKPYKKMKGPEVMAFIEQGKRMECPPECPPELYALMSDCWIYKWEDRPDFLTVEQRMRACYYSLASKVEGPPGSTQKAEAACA

[3] = target: T2, Mitogen-activated protein kinase 8 (Homo sapiens, UniProt P45983); assay: Inhibition of JNK1 at 10 uM
T2 sequence (P45983 whole entry): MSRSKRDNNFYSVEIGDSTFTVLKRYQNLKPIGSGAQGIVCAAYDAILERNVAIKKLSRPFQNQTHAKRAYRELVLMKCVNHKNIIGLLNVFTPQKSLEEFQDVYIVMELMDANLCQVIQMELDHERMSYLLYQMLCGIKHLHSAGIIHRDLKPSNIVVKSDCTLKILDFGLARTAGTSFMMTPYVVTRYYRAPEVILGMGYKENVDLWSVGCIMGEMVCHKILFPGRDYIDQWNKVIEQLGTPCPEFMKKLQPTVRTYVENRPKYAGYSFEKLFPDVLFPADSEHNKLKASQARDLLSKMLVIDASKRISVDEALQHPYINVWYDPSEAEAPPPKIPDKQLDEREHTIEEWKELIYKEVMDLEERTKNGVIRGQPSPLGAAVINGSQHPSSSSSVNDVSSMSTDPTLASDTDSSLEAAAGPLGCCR

[4] = target: Mitogen-activated protein kinase 3 (Homo sapiens, UniProt P27361); assay: Inhibition of ERK1
Sequence of Mitogen-activated protein kinase 3 (P27361 whole entry): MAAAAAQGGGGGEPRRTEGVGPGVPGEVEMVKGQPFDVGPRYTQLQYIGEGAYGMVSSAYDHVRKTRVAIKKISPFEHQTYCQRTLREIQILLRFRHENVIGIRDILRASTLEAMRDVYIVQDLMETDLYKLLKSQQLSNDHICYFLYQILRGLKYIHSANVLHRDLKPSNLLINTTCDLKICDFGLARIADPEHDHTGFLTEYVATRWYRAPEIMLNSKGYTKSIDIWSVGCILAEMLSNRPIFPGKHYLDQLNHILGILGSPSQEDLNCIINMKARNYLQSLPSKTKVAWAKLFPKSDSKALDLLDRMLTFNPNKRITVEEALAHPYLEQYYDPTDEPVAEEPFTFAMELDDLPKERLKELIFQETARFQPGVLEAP

[5] = target: Protein kinase C beta type (Homo sapiens, UniProt P05771); assay: Inhibition of PKC beta2
Sequence of Protein kinase C beta type (P05771 whole entry): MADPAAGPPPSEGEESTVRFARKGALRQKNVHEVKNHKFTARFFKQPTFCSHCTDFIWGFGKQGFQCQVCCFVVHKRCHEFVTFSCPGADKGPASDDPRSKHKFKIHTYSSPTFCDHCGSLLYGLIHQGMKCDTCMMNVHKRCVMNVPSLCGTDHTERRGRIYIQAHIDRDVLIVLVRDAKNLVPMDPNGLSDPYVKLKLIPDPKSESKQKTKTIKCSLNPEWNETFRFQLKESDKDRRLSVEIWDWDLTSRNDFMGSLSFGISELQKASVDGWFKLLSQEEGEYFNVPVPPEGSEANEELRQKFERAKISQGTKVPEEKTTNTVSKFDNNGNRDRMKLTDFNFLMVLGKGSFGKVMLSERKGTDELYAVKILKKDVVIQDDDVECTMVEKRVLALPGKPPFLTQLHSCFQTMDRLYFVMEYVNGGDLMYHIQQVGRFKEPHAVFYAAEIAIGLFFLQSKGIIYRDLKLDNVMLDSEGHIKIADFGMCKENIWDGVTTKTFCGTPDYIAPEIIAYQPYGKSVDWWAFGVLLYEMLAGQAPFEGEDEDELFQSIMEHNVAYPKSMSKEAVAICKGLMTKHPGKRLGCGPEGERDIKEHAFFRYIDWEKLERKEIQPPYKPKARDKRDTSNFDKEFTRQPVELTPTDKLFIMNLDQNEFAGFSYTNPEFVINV

[6] = target: T3, Epidermal growth factor receptor (Homo sapiens, UniProt P00533); assay: Inhibition of EGFR at 10 uM
T3 sequence (P00533 whole entry): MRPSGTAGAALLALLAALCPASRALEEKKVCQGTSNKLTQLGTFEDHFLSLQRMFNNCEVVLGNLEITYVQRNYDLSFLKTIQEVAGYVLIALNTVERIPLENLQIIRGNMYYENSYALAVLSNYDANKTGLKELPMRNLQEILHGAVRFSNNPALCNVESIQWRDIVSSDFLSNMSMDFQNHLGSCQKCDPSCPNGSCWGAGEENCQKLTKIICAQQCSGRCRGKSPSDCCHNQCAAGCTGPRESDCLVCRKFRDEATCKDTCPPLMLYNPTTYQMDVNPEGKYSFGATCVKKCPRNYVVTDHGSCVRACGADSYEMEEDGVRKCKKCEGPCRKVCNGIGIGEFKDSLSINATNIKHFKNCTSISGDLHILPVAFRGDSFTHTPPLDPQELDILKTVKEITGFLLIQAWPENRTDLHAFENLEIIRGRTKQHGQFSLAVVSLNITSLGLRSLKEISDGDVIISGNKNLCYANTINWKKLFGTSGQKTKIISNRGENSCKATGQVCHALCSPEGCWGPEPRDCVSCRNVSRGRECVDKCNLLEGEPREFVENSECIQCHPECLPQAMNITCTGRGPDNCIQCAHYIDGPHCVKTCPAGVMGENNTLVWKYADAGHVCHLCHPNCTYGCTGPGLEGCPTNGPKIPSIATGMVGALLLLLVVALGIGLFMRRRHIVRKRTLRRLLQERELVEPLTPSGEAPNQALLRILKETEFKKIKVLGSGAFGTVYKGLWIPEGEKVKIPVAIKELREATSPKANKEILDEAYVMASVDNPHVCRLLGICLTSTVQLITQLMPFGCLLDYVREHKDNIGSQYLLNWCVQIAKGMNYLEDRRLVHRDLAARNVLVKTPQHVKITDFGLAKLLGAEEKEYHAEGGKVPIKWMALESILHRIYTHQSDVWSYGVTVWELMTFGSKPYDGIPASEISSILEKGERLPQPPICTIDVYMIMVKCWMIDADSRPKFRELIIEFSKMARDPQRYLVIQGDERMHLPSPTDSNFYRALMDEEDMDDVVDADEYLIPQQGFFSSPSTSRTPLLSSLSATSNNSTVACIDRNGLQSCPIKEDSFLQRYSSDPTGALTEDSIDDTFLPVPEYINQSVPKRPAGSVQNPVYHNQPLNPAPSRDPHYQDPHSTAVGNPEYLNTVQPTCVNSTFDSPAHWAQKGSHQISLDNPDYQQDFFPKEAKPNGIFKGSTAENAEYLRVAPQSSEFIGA

[7] = target: Proto-oncogene tyrosine-protein kinase Src (Homo sapiens, UniProt P12931); assay: Inhibition of Src
Sequence of Proto-oncogene tyrosine-protein kinase Src (P12931 2-536 limits assumed): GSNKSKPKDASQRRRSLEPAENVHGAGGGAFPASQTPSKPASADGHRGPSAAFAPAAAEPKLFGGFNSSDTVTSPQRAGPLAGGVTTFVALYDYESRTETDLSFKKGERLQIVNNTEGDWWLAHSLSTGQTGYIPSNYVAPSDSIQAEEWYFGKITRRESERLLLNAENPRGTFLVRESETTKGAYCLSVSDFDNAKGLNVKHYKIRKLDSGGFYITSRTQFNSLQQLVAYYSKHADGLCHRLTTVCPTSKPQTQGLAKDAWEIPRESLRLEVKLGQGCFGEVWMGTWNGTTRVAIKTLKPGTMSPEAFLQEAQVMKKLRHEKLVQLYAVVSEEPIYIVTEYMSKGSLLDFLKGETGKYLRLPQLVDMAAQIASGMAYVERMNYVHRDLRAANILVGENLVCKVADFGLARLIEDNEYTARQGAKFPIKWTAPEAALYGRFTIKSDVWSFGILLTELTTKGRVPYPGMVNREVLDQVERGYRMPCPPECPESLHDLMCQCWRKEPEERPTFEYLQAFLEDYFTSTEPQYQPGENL

[8] = target: Tyrosine-protein kinase Lck (Homo sapiens, UniProt P06239); assay: Inhibition of Lck
Sequence of Tyrosine-protein kinase Lck (P06239 whole entry): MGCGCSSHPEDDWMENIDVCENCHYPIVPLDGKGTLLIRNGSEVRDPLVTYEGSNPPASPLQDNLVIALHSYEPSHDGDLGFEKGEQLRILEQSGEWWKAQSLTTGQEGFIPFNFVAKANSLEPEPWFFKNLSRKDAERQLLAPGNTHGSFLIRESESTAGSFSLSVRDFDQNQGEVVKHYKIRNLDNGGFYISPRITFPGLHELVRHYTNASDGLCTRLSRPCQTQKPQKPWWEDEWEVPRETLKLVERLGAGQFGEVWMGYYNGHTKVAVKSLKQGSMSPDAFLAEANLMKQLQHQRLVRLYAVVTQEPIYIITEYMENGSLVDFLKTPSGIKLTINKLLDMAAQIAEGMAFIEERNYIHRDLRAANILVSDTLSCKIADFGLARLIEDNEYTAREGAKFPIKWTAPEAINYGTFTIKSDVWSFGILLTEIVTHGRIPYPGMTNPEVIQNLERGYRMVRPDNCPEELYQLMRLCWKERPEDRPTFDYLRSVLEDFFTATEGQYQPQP

[9] = target: T3, Epidermal growth factor receptor; assay: Inhibition of EGFR
[10] = target: T2, Mitogen-activated protein kinase 8; assay: Inhibition of JNK1
[11] = target: Tyrosine-protein kinase SYK (Homo sapiens) (UniProt P43405); assay: Inhibition of Syk

Sequence of Mitogen-activated protein kinase 14 (Q16539 whole entry): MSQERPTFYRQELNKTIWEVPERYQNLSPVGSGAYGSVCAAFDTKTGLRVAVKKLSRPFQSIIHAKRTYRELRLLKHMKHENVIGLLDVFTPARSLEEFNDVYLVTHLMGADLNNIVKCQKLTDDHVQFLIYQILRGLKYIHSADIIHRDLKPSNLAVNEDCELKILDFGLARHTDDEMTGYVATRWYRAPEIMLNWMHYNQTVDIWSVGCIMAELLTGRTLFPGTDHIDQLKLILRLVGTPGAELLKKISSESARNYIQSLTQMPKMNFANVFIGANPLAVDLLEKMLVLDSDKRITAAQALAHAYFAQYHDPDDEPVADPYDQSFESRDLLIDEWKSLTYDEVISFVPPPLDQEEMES

| SMILES | IC50 [1] [µM] | IC50 [2] [µM] | inhibition [3] [%] | IC50 [4] [µM] | IC50 [5] [µM] | inhibition [6] [%] | IC50 [7] [µM] | IC50 [8] [µM] | IC50 [9] [µM] | IC50 [10] [µM] | IC50 [11] [µM] |
| --- | --- | --- | --- | --- | --- | --- | --- | --- | --- | --- | --- |
| COc1cc(Nc2nc(NCc3ccc(/C=C/C(=O)O)cc3)n3ccnc3c2C(N)=O)cc(OC)c1 | > 10 | 0.047 | 90 | > 10 | > 10 | 89 | > 10 | > 10 |  |  |  |
| CCOC(=O)/C=C/c1ccc(CNc2nc(Nc3cc(OC)cc(OC)c3)c(C(N)=O)c3nccn23)cc1 | > 10 | 0.088 |  | > 10 | > 10 |  | > 10 | > 12.5 | > 10 | > 10 |  |
| COc1cc(Nc2nc(NCc3ccccc3)n3ccnc3c2C(N)=O)cc(OC)c1 |  | 0.4 |  |  |  |  |  | > 25 |  |  |  |
| CC(=O)N[C@@H](Cc1ccc(OP(=O)(O)O)cc1)C(=O)N[C@@H](CO)c1nc(Cc2ccc(C(F)(F)F)cc2)no1 |  |  |  |  |  |  |  |  |  |  | > 500 |
